Laboratory results from ChEMBL document CHEMBL3988181, “GlaxoSmithKline Published Kinase Inhibitor Set 2 Onchocerca lienalis Screening Data”.

experiment: GSK PKIS2: Screen against O. lienalis microfilariae, single point, at 3.1uM to assess reduction in motility. Compounds were also tested for cytotoxicity against Rhesus Monkey LLCMK2 cells.; format: functional, Onchocerca lienalis, LLC-MK2; conditions: CELL_LINE LLCMK2; CELL_SUPPLIER ECACC; CONC 3.1 uM; ORGANISM_SUPPLIER Extracted from peri-umbilical skin obtained from naturally infected cattle in the UK; temperature 37 degree C

Structure (SMILES)	MOTILITY REDUCTION/CYTOTOXICITY [%]
C[C@H]1CC[C@@H](C(=O)Nc2ccccc2)CN1c1cc(-c2ccc3c(N)n[nH]c3c2)nc(N)n1	0
CN(c1ccc2c(c1)nc(NCc1ccccc1)n2C)c1ccnc(Nc2ccc(CS(C)(=O)=O)cc2)n1	0
CS(=O)(=O)Nc1ccc(-c2ccnc3[nH]ccc23)cc1	0
O=C(Nc1n[nH]c2cc(-c3ccco3)ccc12)C1CC1	0
COc1ccc(C)c(Nc2ccnc(Nc3ccc(-c4cnc[nH]4)cc3)n2)c1	0
NCCC(NC(=O)c1cc(Br)c(-c2ccnc3[nH]ccc23)s1)c1ccccc1 (configuration not stated)	13.4
O=C(Nc1n[nH]c2nc(-c3nccs3)c(Br)cc12)C1CCCC1	20
Nc1ncnc2occ(-c3ccc(NC(=O)Nc4cc(C(F)(F)F)ccc4F)cc3)c12 [GW770249X]	0
Cc1ccccc1Cn1ccn2c(=O)cc(N3CCOCC3)nc12	0
CC1=C(C(=O)Nc2cc3cn[nH]c3cc2F)C(c2ccc(C(F)(F)F)cc2)CC(=O)N1 (configuration not stated)	0
CC(C)c1nc(-c2cccc(NS(=O)(=O)c3c(F)cccc3F)c2F)c(-c2ccnc(Nc3ccc(N4CCOCC4)nc3)n2)s1	93.4
FC(F)(F)c1ccc(-c2nn3ncccc3c2-c2ccnc(Nc3cccc(C(F)(F)F)c3)n2)cc1	0
CNC(=O)c1ccccc1Nc1nc(Nc2ccc(N3CCOCC3)cc2)ncc1Cl	80
COc1cccc(C2=C(Nc3cccc(Cl)c3)C(=O)NC2=O)c1	0
O=C(Nc1ccccc1F)NC1CCN(c2ccnc(Nc3ccc(F)cc3)n2)CC1	53.4
C[C@@H]1CC[C@H](C(=O)NC2CCCCC2)CN1c1cc(-c2ccc3c(N)n[nH]c3c2)nc(N)n1	0
Fc1cc(Cl)ccc1Nc1ccnc2cc(-c3ccc(CN4CCCCC4)o3)ccc12	16.7
Cc1ccc(C(=O)Nc2ccc(Nc3ccnc4cc(-c5nccs5)ccc34)cc2O)cc1	0
COc1cc2nccc(Nc3ccc(OCc4ccc(NC(C)=O)cc4)cc3)c2cc1OC	0
Nc1ncnc2c1ncn2-c1cccc2ccccc12	0
Cc1nn2c(=O)cc(N3CCO[C@H](C)C3)nc2n1Cc1cccc(Cl)c1Cl	33.4
Cc1cccc(-c2nc(Nc3ccc4c(cnn4C)c3)c3ccccc3n2)n1	100

Structure (SMILES)	MOTILITY REDUCTION/CYTOTOXICITY [%]
COc1ccccc1C1=C(Nc2ccc(O)c(Cl)c2)C(=O)NC1=O	0
COc1ccc(Nc2ncc(C#N)c(Nc3ccccc3C(N)=O)n2)cc1N1CCN(C)CC1	13.4
COc1cccc(NC(=O)NC2CCN(c3ccnc(Nc4ccc(F)cc4)n3)C2)c1 (configuration not stated)	13.4
COc1cc(Nc2nccc(N3CCC(NC(=O)c4cc5ccccc5s4)C3)n2)cc(OC)c1OC (configuration not stated)	0
O=c1cc(N2CCOCC2)nc2n(Cc3cccc(Cl)c3Cl)ccn12	80
CC(=O)Nc1n[nH]c2ncc(-c3ccccc3)cc12	0
Cc1c(Cn2c3ccccc3n3c(=O)cc(N4CCOCC4)nc23)cccc1C(F)(F)F	0
Cc1cc(N2Cc3ccccc3C2)nc(Nc2ccc(S(=O)(=O)N3CCOCC3)cc2)n1	0
COc1cc(Nc2nccc(N3CCC(NC(=O)C(C)c4ccc(Cl)cc4)C3)n2)cc(OC)c1OC (configuration not stated)	66.7
O=C(Nc1n[nH]c2nc(-c3cccc(O)c3)ccc12)C1CC1	0
CCS(=O)(=O)c1ccc(OC)c(Nc2nccc(-c3c(-c4cccc(NC(=O)c5c(F)cccc5F)c4)nn4ncccc34)n2)c1	33.4
CCCCc1nn2ncccc2c1-c1ccnc(NC2CC2)n1	0
O=C(Nc1n[nH]c2nc(-c3cccs3)c(Br)cc12)C1CC1	0
c1ccc(Oc2ccc(Nc3ccnc4cc(-c5ccc(CN6CCNCC6)o5)ccc34)cc2)nc1	0
NS(=O)(=O)CCc1cccc(Nc2nccc(-c3c(-c4cccc(NC(=O)c5c(F)cccc5F)c4)nn4ccccc34)n2)c1	33.4
CNc1nc(-c2ccc3c(N)n[nH]c3c2)cc(N2C[C@@H](C(=O)Nc3ccccc3)CC[C@H]2C)n1	0
CSc1nn2c(=O)cc(N3CCOCC3)nc2n1Cc1cccc(Cl)c1Cl	46.7
COc1cc2ncn(-c3cc(OCC4CCCCC4)c(C(N)=O)s3)c2cc1OC	33.4
CN(C)Cc1ccc(-c2ccc3c(Nc4ccc(Oc5ccccn5)cc4)ccnc3c2)o1	0
Cc1ccc(NC(=O)c2ccnc(N3CCCCC3)c2)cc1-c1ccc(C(=O)NCC2CC2)cc1	0
Cc1ccc(C)c(NC(=O)NCCNc2ccnc(Nc3ccc(F)cc3)n2)c1	86.7
Nc1n[nH]c2nnc(-c3ccccc3)cc12	0

Structure (SMILES)	MOTILITY REDUCTION/CYTOTOXICITY [%]
CN(C1=C(c2ccccc2)C(=O)NC1=O)c1ccccc1	0
COc1ccc(CNC(=O)NC2CCN(c3ccnc(Nc4cc(OC)c(OC)c(OC)c4)n3)C2)cc1 (configuration not stated)	0
COC(=O)Nc1nc2ccc(Oc3ccc(NC(=O)Nc4cc(C(F)(F)F)ccc4F)cn3)cc2[nH]1	0
Nc1nc(-c2ccc3c(N)n[nH]c3c2)cc(N2CCCC(NC(=O)c3ccccc3)C2)n1 (configuration not stated)	0
COc1ccc(Nc2nccc(N3CCC(NC(=O)C(C)c4ccc(Cl)cc4)C3)n2)cc1 (configuration not stated)	33.4
Cn1cc(-c2ccc3c(c2)CCN3C(=O)Cc2ccccc2Cl)c2c(N)ncnc21	16.7
COc1cccc(CNC(=O)NC2CCN(c3ccnc(Nc4ccc(F)cc4)n3)C2)c1 (configuration not stated)	33.4
CC(C)(C)c1ccc(-n2cnc3c(N)ncnc32)cc1	0
CC(C)S(=O)(=O)N1CCN(Cc2ccc3c(c2)nc(NC(=O)c2ccsc2)n3C[C@H](O)c2ccccc2)CC1	0
COc1ccc2cc(-c3nc(-c4ccccc4C(C)C)[nH]c3-c3ccncc3)ccc2c1	100
OCCCNc1nccc(-c2c(-c3cccc(C(F)(F)F)c3)nn3cc(C(F)(F)F)ccc23)n1	0
Cc1occc1-c1ncc(OC[C@@H](N)Cc2c[nH]c3ccccc23)cc1-c1ccc2[nH]nc(C)c2c1	0
Cc1ccc(S(=O)(=O)Nc2ccc(Nc3nccc(Nc4cccc5[nH]ncc45)n3)cc2)cc1	0
CNc1nccc(-c2c(-c3ccc(F)cc3)ncn2CCCN2CCOCC2)n1	0
FC(F)(F)c1ccc(-c2ncn(CCCN3CCOCC3)c2-c2ccncc2)cc1	40
CCN(CC)CCOc1ccc(Nc2ncc3cc(-c4c(Cl)cccc4Cl)c(=O)n(C)c3n2)cc1 [PD-0166285]	33.4
CN1CCN(CCCNc2nccc(-c3c(-c4ccc(F)cc4)nn4cc(C(F)(F)F)ccc34)n2)CC1	0
Cc1ccc(O)cc1Nc1ccnc2ccc(C(C)(C)C)cc12	100
COc1cc2ncn(-c3cc(OCc4ccncc4Br)c(C(N)=O)s3)c2cc1OC	0
O=C(Nc1n[nH]c2nc(-c3ccc(O)cc3)ccc12)C1CC1	33.4
COc1ccc(Nc2nccc(-c3cccc(NC(=O)c4cc5cc(F)ccc5[nH]4)c3)n2)cc1	53.4
Cc1ccc(NC(=O)Nc2ccc(Cl)c(C(F)(F)F)c2)cc1-c1ccc(C(=O)Nc2ccncc2)cc1	40

Structure (SMILES)	MOTILITY REDUCTION/CYTOTOXICITY [%]
COc1cc(Nc2ccnc3cc(-c4ccncc4)ccc23)cc(OC)c1OC	33.4
Fc1cccc(COc2ccc(Nc3ncnc4sc(-c5ccc[nH]5)cc34)cc2Cl)c1	100
CN1CCC(n2cnc(-c3ccc(F)cc3)c2-c2ccnc(NC3CCNCC3)n2)CC1	0
Nc1nc(-c2ccccn2)c(-c2ccnc3ccccc23)s1	0
COC(=O)Nc1nc2cc(Oc3ccc(NC(=O)Nc4cc(C(F)(F)F)ccc4F)cc3)ccc2[nH]1	0
Cc1cccc(-c2cc(-c3c[nH]nc3-c3ccccn3)ccn2)c1	0
Cc1c(Cn2c(C)c(C)n3c(=O)cc(N4CCOCC4)nc23)cccc1C(F)(F)F	0
O=C1NC(=O)C(c2ccc(Cl)cc2)=C1Nc1cccc(C(=O)O)c1	0
N#Cc1ccc(CCNc2nccc(-c3cccc(CN4CCNCC4)c3)n2)cc1	0
O=C(Nc1n[nH]c2nc(-c3ccccc3)c(Cl)cc12)C1CC1	0
COc1cc2ncnc(Nc3ccc4nc(-c5ccccc5)[nH]c4c3)c2cc1OC	73.4
Clc1cc(Cl)cc(Nc2ccnc(Nc3cc(Cl)cc(Cl)c3)n2)c1	86.7
O=C(Nc1cccc(-c2nn3ncccc3c2-c2ccnc(Nc3cccc(C(F)(F)F)c3)n2)c1)c1c(F)cccc1F	0
O=C1NC(=O)C(c2ccc(Cl)cc2)=C1Nc1cccc(Cl)c1	33.4
CS(=O)(=O)c1ccc(-c2nc3n(c2-c2ccncc2)CCC3)cc1	0
Fc1ccc(-c2nn3c(OCC(F)(F)F)cccc3c2-c2ccncc2)cc1	13.4
COc1ccc(Nc2nccc(N3CCC(NC(=O)Nc4ccc5c(c4)OCO5)C3)n2)cc1 (configuration not stated)	20
COC(=O)c1cccc(NC(=O)NC2CCN(c3ccnc(NCc4ccc(F)cc4)n3)CC2)c1	20
COC(=O)Nc1nc2ccc(Oc3ccc(CC(=O)Nc4cc(C(F)(F)F)ccc4F)cc3)cc2[nH]1	33.4
Clc1ccc(-c2nn3ncccc3c2-c2ccnc(Nc3ccc4c(c3)OCCO4)n2)cc1	0
Fc1cc(Cl)ccc1Nc1ccnc2cc(-c3ccc(CN4CCSCC4)o3)ccc12	33.4
